Reference: PubChem BioAssay AID1259407 (Chemical Carcinogenesis Research Information System (CCRIS), 2018)
Active and inactive are the calls of the source. How the calls were made is not given here.

Tested on: CCRIS mutagenicity, Ames/micronucleus/aberration tests
Assay: CCRIS mutagenicity studies
[1] = Test System: AMES SALMONELLA TYPHIMURIUM, Strain/Indicator: TA98, Metabolic Activation: NONE, Method: PREINCUBATION
[2] = Test System: AMES SALMONELLA TYPHIMURIUM, Strain/Indicator: TA100, Metabolic Activation: NONE, Method: PREINCUBATION

COCCO
mutagenic call (Test System: AMES SALMONELLA TYPHIMURIUM, Strain/Indicator: TA97, Metabolic Activation: HAMSTER, LIVER, S-9, AROCLOR 1254 (10 OR 30%), Method: PREINCUBATION): inactive; negative | mutagenic call (Test System: AMES SALMONELLA TYPHIMURIUM, Strain/Indicator: TA97, Metabolic Activation: NONE, Method: PREINCUBATION): inactive; negative | mutagenic call (Test System: AMES SALMONELLA TYPHIMURIUM, Strain/Indicator: TA97, Metabolic Activation: RAT, LIVER, S-9, AROCLOR 1254 (10 OR 30%), Method: PREINCUBATION): inactive; negative | mutagenic call (Test System: AMES SALMONELLA TYPHIMURIUM, Strain/Indicator: TA97A, Metabolic Activation: NONE, Method: STANDARD PLATE): inactive; negative | mutagenic call (Test System: AMES SALMONELLA TYPHIMURIUM, Strain/Indicator: TA97A, Metabolic Activation: RAT, LIVER, S-9, AROCLOR 1254, Method: STANDARD PLATE): inactive; negative | mutagenic call (Test System: AMES SALMONELLA TYPHIMURIUM, Strain/Indicator: TA98, Metabolic Activation: HAMSTER, LIVER, S-9, AROCLOR 1254 (10 OR 30%), Method: PREINCUBATION): inactive; negative | mutagenic call [1]: inactive; negative | mutagenic call (Test System: AMES SALMONELLA TYPHIMURIUM, Strain/Indicator: TA98, Metabolic Activation: NONE, Method: STANDARD PLATE): inactive; negative | mutagenic call (Test System: AMES SALMONELLA TYPHIMURIUM, Strain/Indicator: TA98, Metabolic Activation: RAT, LIVER, S-9, AROCLOR 1254 (10 OR 30%), Method: PREINCUBATION): inactive; negative | mutagenic call (Test System: AMES SALMONELLA TYPHIMURIUM, Strain/Indicator: TA98, Metabolic Activation: RAT, LIVER, S-9, AROCLOR 1254, Method: STANDARD PLATE): inactive; negative | mutagenic call (Test System: AMES SALMONELLA TYPHIMURIUM, Strain/Indicator: TA100, Metabolic Activation: HAMSTER, LIVER, S-9, AROCLOR 1254 (10 OR 30%), Method: PREINCUBATION): inactive; negative | mutagenic call [2]: inactive; negative | mutagenic call (Test System: AMES SALMONELLA TYPHIMURIUM, Strain/Indicator: TA100, Metabolic Activation: NONE, Method: STANDARD PLATE): inactive; negative | mutagenic call (Test System: AMES SALMONELLA TYPHIMURIUM, Strain/Indicator: TA100, Metabolic Activation: RAT, LIVER, S-9, AROCLOR 1254 (10 OR 30%), Method: PREINCUBATION): inactive; negative | mutagenic call (Test System: AMES SALMONELLA TYPHIMURIUM, Strain/Indicator: TA100, Metabolic Activation: RAT, LIVER, S-9, AROCLOR 1254, Method: STANDARD PLATE): inactive; negative | mutagenic call (Test System: AMES SALMONELLA TYPHIMURIUM, Strain/Indicator: TA102, Metabolic Activation: NONE, Method: STANDARD PLATE): inactive; negative | mutagenic call (Test System: AMES SALMONELLA TYPHIMURIUM, Strain/Indicator: TA102, Metabolic Activation: RAT, LIVER, S-9, AROCLOR 1254, Method: STANDARD PLATE): inactive; negative | mutagenic call (Test System: AMES SALMONELLA TYPHIMURIUM, Strain/Indicator: TA1535, Metabolic Activation: HAMSTER, LIVER, S-9, AROCLOR 1254 (10 OR 30%), Method: PREINCUBATION): inactive; negative | mutagenic call (Test System: AMES SALMONELLA TYPHIMURIUM, Strain/Indicator: TA1535, Metabolic Activation: NONE, Method: PREINCUBATION): inactive; negative | mutagenic call (Test System: AMES SALMONELLA TYPHIMURIUM, Strain/Indicator: TA1535, Metabolic Activation: RAT, LIVER, S-9, AROCLOR 1254 (10 OR 30%), Method: PREINCUBATION): inactive; negative | mutagenic call (Test System: CHINESE HAMSTER OVARY, Strain/Indicator: CHO AS52 (GPT)/6-THIOGUANINE, Metabolic Activation: NONE): inactive; negative | mutagenic call (Test System: CHINESE HAMSTER OVARY, Strain/Indicator: CHO-AS52/6-THIOGUANINE, Metabolic Activation: NONE): inactive; negative | mutagenic call (Test System: CHINESE HAMSTER OVARY, Strain/Indicator: CHO-K1-BH4 (HGPRT)/6-THIOGUANINE, Metabolic Activation: NONE): inactive; negative | mutagenic call (Test System: CHINESE HAMSTER OVARY, Strain/Indicator: CHO-K1-BH4 (HGPRT)/6-THIOGUANINE, Metabolic Activation: RAT, LIVER, S-9, AROCLOR 1254): inactive; negative

CC(=O)Nc1ccc(/C=C/c2ccccc2)cc1
mutagenic call (Test System: CHINESE HAMSTER OVARY, Strain/Indicator: AS52/6-THIOGUANINE, Metabolic Activation: NONE): inactive; negative | mutagenic call (Test System: CHINESE HAMSTER OVARY, Strain/Indicator: AS52/6-THIOGUANINE, Metabolic Activation: RAT LIVER S-9, 2-ACETYLAMINOFLUORENE): active; positive

O=C1c2ccccc2C(=O)c2c(O)cccc21
mutagenic call [1]: inactive; negative | mutagenic call (Test System: AMES SALMONELLA TYPHIMURIUM, Strain/Indicator: TA98, Metabolic Activation: RAT, LIVER, S-9, AROCLOR 1254 (10%), Method: PREINCUBATION): inactive; negative | mutagenic call (Test System: AMES SALMONELLA TYPHIMURIUM, Strain/Indicator: TA98, Metabolic Activation: RAT, LIVER, S-9, AROCLOR 1254, Method: PREINCUBATION): inactive; negative | mutagenic call [2]: inactive; negative | mutagenic call (Test System: AMES SALMONELLA TYPHIMURIUM, Strain/Indicator: TA100, Metabolic Activation: RAT, LIVER, S-9, AROCLOR 1254 (10%), Method: PREINCUBATION): inactive; negative | mutagenic call (Test System: AMES SALMONELLA TYPHIMURIUM, Strain/Indicator: TA100, Metabolic Activation: RAT, LIVER, S-9, AROCLOR 1254, Method: PREINCUBATION): inactive; negative | mutagenic call (Test System: AMES SALMONELLA TYPHIMURIUM, Strain/Indicator: TA102, Metabolic Activation: NONE, Method: PREINCUBATION): inactive; negative | mutagenic call (Test System: AMES SALMONELLA TYPHIMURIUM, Strain/Indicator: TA102, Metabolic Activation: RAT, LIVER, S-9, AROCLOR 1254 (10%), Method: PREINCUBATION): inactive; negative | mutagenic call (Test System: AMES SALMONELLA TYPHIMURIUM, Strain/Indicator: TA1537, Metabolic Activation: NONE, Method: PREINCUBATION): active; positive | mutagenic call (Test System: AMES SALMONELLA TYPHIMURIUM, Strain/Indicator: TA1537, Metabolic Activation: RAT, LIVER, S-9, AROCLOR 1254, Method: PREINCUBATION): active; positive | mutagenic call (Test System: UDS RODENT HEPATOCYTES, Strain/Indicator: THY INCORP, Metabolic Activation: NONE): active; positive

Cc1cccc2cc3c(ccc4ccccc43)cc12
mutagenic call (Test System: AMES SALMONELLA TYPHIMURIUM, Strain/Indicator: TA100, Metabolic Activation: RAT, INTACT HEPATOCYTES, AROCLOR 1254, Method: PREINCUBATION): active; positive | mutagenic call (Test System: AMES SALMONELLA TYPHIMURIUM, Strain/Indicator: TA100, Metabolic Activation: RAT, NADPH-FORTIFIED HOMOGENIZED HEPATOCYTES, AROCLOR 1254, Method: PREINCUBATION): active; positive | mutagenic call (Test System: AMES SALMONELLA TYPHIMURIUM, Strain/Indicator: TA100, Metabolic Activation: RAT, SONICATED HEPATOCYTES, AROCLOR 1254, Method: PREINCUBATION): active; positive
